Laboratory results published in patent US12680102B2, “miRNAS for reducing ventricle enlargement” (St. Jude Children's Research Hospital, Inc., priority 2019, dated 2026).

Key:
Drd1 = biological target: T1, Drd1 (Mus musculus, UniProt Q61616); test: Ex vivo ciliary beating frequency (CBF) in brain slices, Drd1 agonist/antagonist bath-applied; type: cell-based; conditions: SKF81297 10 μM bath-applied, slices from 4- to 5-month-old WT mice, vs vehicle (DMSO)
T1 construct: coronal brain sections (300-μm) were collected in L-15 Leibovitz media; from tissue; host or cells: acute coronal mouse brain slices (300 µm); ciliated ependymal cells of the lateral ventricle wall; WT and Dgcr8+/- mice
T1 sequence (Q61616 whole entry): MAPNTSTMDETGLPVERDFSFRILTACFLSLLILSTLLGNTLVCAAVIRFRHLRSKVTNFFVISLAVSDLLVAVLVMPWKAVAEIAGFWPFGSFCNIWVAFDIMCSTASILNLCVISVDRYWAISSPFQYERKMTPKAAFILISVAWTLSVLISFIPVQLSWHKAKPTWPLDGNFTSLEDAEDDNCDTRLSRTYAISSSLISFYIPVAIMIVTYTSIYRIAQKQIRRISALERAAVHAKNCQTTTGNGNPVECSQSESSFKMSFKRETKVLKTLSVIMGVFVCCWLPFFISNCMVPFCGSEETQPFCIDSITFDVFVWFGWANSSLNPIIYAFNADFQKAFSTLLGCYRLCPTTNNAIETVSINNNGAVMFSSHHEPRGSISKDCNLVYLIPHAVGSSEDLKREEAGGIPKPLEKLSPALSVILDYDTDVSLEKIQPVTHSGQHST
Method: Ex Vivo Ciliary Beating Frequency Measurements. For ex vivo measurement of CBF, coronal brain sections (300-μm) were collected in L-15 Leibovitz media (Thermo Fisher Scientific) and placed in 37° C., 95%/5% O2/CO2 chamber. Image sequences of CBF were acquired by linescan analysis using an LD C-Apochromat 40× objective water-immersion lens (1.1 NA) in LSM780 confocal microscope (Zeiss AxioObserver). Slices were scanned through a line perpendicular to the axis of the cilia in the Xt mode along this line with an acquisition rate of 529 frames/second (512×1 frame size, 1.89-ms scan time, 5,000 cycles). Transmitted DIC and fluorescence emitted by GFP or Alexa Fluor 488 were collected with a 488- to 568-nm bandpass filter. Fluorescence excitation and transmitted illumination were provided by a 488-nm argon gas laser. The Drd1 agonist (SKF81297, 10 μM; Tocris, Minneapolis, MN) and antagonist (SCH23390, 10 μM; Tocris) were bath-applied once per slice. Five minutes after the agonist or antagonist was applied, the CBF was measured.

[1] = test system: luciferase reporter encoding miRNA sponge; test: Luciferase assay validating miRNA sponges in Neuro 2a cells; type: cell-based, mouse; conditions: pGIPZ vector encoding the miRNA vs control pGIPZ
From the text: FIGS. 13A-13B. Validation of the miRNA Sponges, Related to FIGS. 6A-6H. (FIG. 13A) Luciferase activity measured in Neuro 2a cells transfected with luciferase reporter vector alone, luciferase reporter vector encoding miR-382-3p sponges (two-tailed Student's t-test; t4=1.62, p=0.18) containing two (t4=23.00, *p<0.001), four (t4=24.35, *p<0.001), or six (t4=9.17, *p<0.001) miRNA-binding sites or scrambled sites (t4=2.36, p=0.08) in the presence of control pGIPZ vector or pGIPZ vector encoding miR-382-3p. Based on these experiments, the miR-382-3p sponge with six seed sites was chosen for in vivo experiments. (FIG. 13B) Luciferase activity in Neuro2a cells transfected with luciferase reporter vector alone, luciferase reporter vector encoding miR-674-3p sponges (t4=14.13, *p<0.001) containing two (t4=14.25, *p<0.001), four (t4=80.70, *p<0.001), or six miRNA-binding sites (t4=26.67, *p<0.001), or scrambled (t4=1.11, p=0.33) sites in the presence of control pGIPZ vector or pGIPZ vector encoding miR-674-3p. Data are shown as the mean±S.E.M.
Generation of miRNA Sponge Constructs. The miR-382-3p and miR-674-3p sponges were generated as described previously (Chun et al., 2017). […]

## Oc1cc2c(c(Cl)c1O)CCNCC2c1ccccc1 (centres unmarked) [SKF81297]
Drd1
  ependymal CBF: slowed ependymal CBF compared to vehicle treatment

## miR-674-3p: mature mouse miRNA CACAGCUCCCAUCUCAGAACAA (SEQ ID NO: 3); in FIG. 13 expressed from pGIPZ vector (listed as Mus musculus)
[1]
  inhibition of reporters containing the sponge sequence (luciferase activity): effectively inhibited reporters containing the sponge sequence in vitro
